Assay results: ChEMBL document CHEMBL3046293, “Fungicidal Activities of -Methoxyphenylacetic Acid Derivatives” (2002)

Key:
Type in all cases: functional
[1] = system: Pseudoperonospora cubensis; assay: Fungicidal activity against Pseudoperonospora cubensis assessed as cucumber downy mildew disease control at 125 ppm foliar application 24 hr before inoculation onto the adaxial(treated) surface of leaf by preventive manner
[2] = system: Pseudoperonospora cubensis; assay: Fungicidal activity against Pseudoperonospora cubensis assessed as cucumber downy mildew disease control at 125 ppm foliar application 24 hr after inoculation by curative manner
[3] = system: Pseudoperonospora cubensis; assay: Fungicidal activity against Pseudoperonospora cubensis assessed as cucumber downy mildew disease control at 31.3 ppm foliar application 24 hr after inoculation by curative manner
[4] = system: Pseudoperonospora cubensis; assay: Fungicidal activity against Pseudoperonospora cubensis assessed as cucumber downy mildew disease control at 31.3 ppm foliar application 24 hr before inoculation onto the abaxial(treated) surface of leaf by preventive manner
[5] = system: Pseudoperonospora cubensis; assay: Fungicidal activity against Pseudoperonospora cubensis assessed as cucumber downy mildew disease control at 2 ppm foliar application 24 hr before inoculation onto the abaxial(treated) surface of leaf by preventive manner
[6] = system: Pseudoperonospora cubensis; assay: Fungicidal activity against Pseudoperonospora cubensis assessed as cucumber downy mildew disease control at 0.5 ppm foliar application 24 hr before inoculation onto the abaxial(treated) surface of leaf by preventive manner
[7] = system: Pseudoperonospora cubensis; assay: Fungicidal activity against Pseudoperonospora cubensis assessed as cucumber downy mildew disease control at 7.8 ppm foliar application 24 hr after inoculation by curative manner
[8] = system: Pseudoperonospora cubensis; assay: Fungicidal activity against Pseudoperonospora cubensis assessed as cucumber downy mildew disease control at 7.8 ppm foliar application 24 hr before inoculation onto the abaxial(treated) surface of leaf by preventive manner
[9] = system: Pseudoperonospora cubensis; assay: Fungicidal activity against Pseudoperonospora cubensis assessed as cucumber downy mildew disease control at 7.8 ppm foliar application 24 hr before inoculation onto the adaxial(treated) surface of leaf by preventive manner
[10] = system: Pseudoperonospora cubensis; assay: Fungicidal activity against Pseudoperonospora cubensis assessed as cucumber downy mildew disease control at 2 ppm foliar application 24 hr before inoculation onto the adaxial(treated) surface of leaf by preventive manner
[11] = system: Pseudoperonospora cubensis; assay: Fungicidal activity against Pseudoperonospora cubensis assessed as cucumber downy mildew disease control at 125 ppm foliar application 24 hr before inoculation onto the abaxial(treated) surface of leaf by preventive manner
[12] = system: Pseudoperonospora cubensis; assay: Fungicidal activity against Pseudoperonospora cubensis assessed as cucumber downy mildew disease control at 0.5 ppm foliar application 24 hr after inoculation by curative manner
[13] = system: Pseudoperonospora cubensis; assay: Fungicidal activity against Pseudoperonospora cubensis assessed as cucumber downy mildew disease control at 0.5 ppm foliar application 24 hr before inoculation onto the adaxial(treated) surface of leaf by preventive manner
[14] = system: Pseudoperonospora cubensis; assay: Fungicidal activity against Pseudoperonospora cubensis assessed as cucumber downy mildew disease control at 2 ppm foliar application 24 hr after inoculation by curative manner
[15] = system: Pseudoperonospora cubensis; assay: Fungicidal activity against Pseudoperonospora cubensis assessed as cucumber downy mildew disease control at 31.3 ppm foliar application 24 hr before inoculation onto the adaxial(treated) surface of leaf by preventive manner
Blumeria graminis [16] = assay: Fungicidal activity against Blumeria graminis f. sp. tritici assessed as wheat powdery mildew disease control at 0.5 ppm foliar application for 24 hr after inoculation by curative manner
Blumeria graminis [17] = assay: Fungicidal activity against Blumeria graminis f. sp. tritici assessed as wheat powdery mildew disease control at 2 ppm foliar application for 24 hr before inoculation by preventive manner
Blumeria graminis [18] = assay: Fungicidal activity against Blumeria graminis f. sp. tritici assessed as wheat powdery mildew disease control at 31.3 ppm foliar application for 24 hr before inoculation by preventive manner
Blumeria graminis [19] = assay: Fungicidal activity against Blumeria graminis f. sp. tritici assessed as wheat powdery mildew disease control at 7.8 ppm foliar application for 24 hr before inoculation by preventive manner
Blumeria graminis [20] = assay: Fungicidal activity against Blumeria graminis f. sp. tritici assessed as wheat powdery mildew disease control at 2 ppm foliar application for 24 hr after inoculation by curative manner
Blumeria graminis [21] = assay: Fungicidal activity against Blumeria graminis f. sp. tritici assessed as wheat powdery mildew disease control at 0.5 ppm foliar application for 24 hr before inoculation by preventive manner
Blumeria graminis [22] = assay: Fungicidal activity against Blumeria graminis f. sp. tritici assessed as wheat powdery mildew disease control at 7.8 ppm foliar application for 24 hr after inoculation by curative manner
Botrytis cinerea [23] = assay: Fungicidal activity against Botryotinia fuckeliana assessed as cucumber gray mold disease control at 31.3 ppm treated 24 hr before inoculation by preventive manner
Podosphaera fuliginea [24] = assay: Fungicidal activity against Podosphaera fuliginea assessed as cucumber powdery mildew disease control at 500 ppm treated 24 hr before inoculation by preventive manner
Pyricularia oryzae [25] = assay: Fungicidal activity against Magnaporthe oryzae Cav. race 003 assessed as rice blast disease control at 125 ppm treated 24 hr before inoculation by preventive manner
Botrytis cinerea [26] = assay: Fungicidal activity against Botryotinia fuckeliana assessed as cucumber gray mold disease control at 125 ppm treated 24 hr before inoculation by preventive manner
Podosphaera fuliginea [27] = assay: Fungicidal activity against Podosphaera fuliginea assessed as cucumber powdery mildew disease control at 7.8 ppm treated 24 hr before inoculation by preventive manner
Podosphaera fuliginea [28] = assay: Fungicidal activity against Podosphaera fuliginea assessed as cucumber powdery mildew disease control at 31.3 ppm treated 24 hr before inoculation by preventive manner
Pyricularia oryzae [29] = assay: Fungicidal activity against Magnaporthe oryzae Cav. race 003 assessed as rice blast disease control at 500 ppm treated 24 hr before inoculation by preventive manner
Pyricularia oryzae [30] = assay: Fungicidal activity against Magnaporthe oryzae Cav. race 003 assessed as rice blast disease control at 2 ppm foliar application for 24 hr before inoculation by preventive manner
Pyricularia oryzae [31] = assay: Fungicidal activity against Magnaporthe oryzae Cav. race 003 assessed as rice blast disease control at 7.8 ppm foliar application for 24 hr before inoculation by preventive manner
Botrytis cinerea [32] = assay: Fungicidal activity against Botryotinia fuckeliana assessed as cucumber gray mold disease control at 7.8 ppm treated 24 hr before inoculation by preventive manner
Podosphaera fuliginea [33] = assay: Fungicidal activity against Podosphaera fuliginea assessed as cucumber powdery mildew control at 0.5 ppm foliar application 24 hr after inoculation by curative manner
Thanatephorus cucumeris [34] = assay: Fungicidal activity against Thanatephorus cucumeris assessed as rice sheath blight disease control at 7.8 ppm foliar application for 24 hr after inoculation by curative manner
Pyricularia oryzae [35] = assay: Fungicidal activity against Magnaporthe oryzae Cav. race 003 assessed as rice blast disease control at 31.3 ppm treated 24 hr before inoculation by preventive manner
Thanatephorus cucumeris [36] = assay: Fungicidal activity against Thanatephorus cucumeris assessed as rice sheath blight disease control at 125 ppm foliar application for 24 hr after inoculation by curative manner
Botrytis cinerea [37] = assay: Fungicidal activity against Botryotinia fuckeliana assessed as cucumber gray mold disease control at 7.8 ppm foliar application 24 hr after inoculation by curative manner
Botrytis cinerea [38] = assay: Fungicidal activity against Botryotinia fuckeliana assessed as cucumber gray mold disease control at 125 ppm foliar application 24 hr after inoculation by curative manner
Pyricularia oryzae [39] = assay: Fungicidal activity against Magnaporthe oryzae Cav. race 003 assessed as rice blast disease control at 125 ppm foliar application for 24 hr before inoculation by preventive manner
Blumeria graminis [40] = assay: Fungicidal activity against Blumeria graminis f. sp. tritici assessed as wheat powdery mildew disease control at 125 ppm foliar application for 24 hr before inoculation by preventive manner
Botrytis cinerea [41] = assay: Fungicidal activity against Botryotinia fuckeliana assessed as cucumber gray mold disease control at 31.3 ppm foliar application 24 hr after inoculation by curative manner
Botrytis cinerea [42] = assay: Fungicidal activity against Botryotinia fuckeliana assessed as cucumber gray mold disease control at 31.3 ppm foliar application 24 hr before inoculation by preventive manner
Thanatephorus cucumeris [43] = assay: Fungicidal activity against Thanatephorus cucumeris assessed as rice sheath blight disease control at 7.8 ppm foliar application for 24 hr before inoculation by preventive manner
Podosphaera fuliginea [44] = assay: Fungicidal activity against Podosphaera fuliginea assessed as cucumber powdery mildew control at 2 ppm foliar application 24 hr before inoculation by preventive manner
Thanatephorus cucumeris [45] = assay: Fungicidal activity against Thanatephorus cucumeris assessed as rice sheath blight disease control at 31.3 ppm foliar application for 24 hr after inoculation by curative manner
Podosphaera fuliginea [46] = assay: Fungicidal activity against Podosphaera fuliginea assessed as cucumber powdery mildew control at 7.8 ppm foliar application 24 hr before inoculation by preventive manner
Podosphaera fuliginea [47] = assay: Fungicidal activity against Podosphaera fuliginea assessed as cucumber powdery mildew control at 0.5 ppm foliar application 24 hr before inoculation by preventive manner
Blumeria graminis [48] = assay: Fungicidal activity against Blumeria graminis f. sp. tritici assessed as wheat powdery mildew disease control at 31.3 ppm foliar application for 24 hr after inoculation by curative manner
Podosphaera fuliginea [49] = assay: Fungicidal activity against Podosphaera fuliginea assessed as cucumber powdery mildew control at 0.125 ppm foliar application 24 hr after inoculation by curative manner
Botrytis cinerea [50] = assay: Fungicidal activity against Botryotinia fuckeliana assessed as cucumber gray mold disease control at 2 ppm foliar application 24 hr after inoculation by curative manner
Pyricularia oryzae [51] = assay: Fungicidal activity against Magnaporthe oryzae Cav. race 003 assessed as rice blast disease control at 31.3 ppm foliar application for 24 hr before inoculation by preventive manner
Botrytis cinerea [52] = assay: Fungicidal activity against Botryotinia fuckeliana assessed as cucumber gray mold disease control at 125 ppm foliar application 24 hr before inoculation by preventive manner
Thanatephorus cucumeris [53] = assay: Fungicidal activity against Thanatephorus cucumeris assessed as rice sheath blight disease control at 2 ppm foliar application for 24 hr after inoculation by curative manner
Botrytis cinerea [54] = assay: Fungicidal activity against Botryotinia fuckeliana assessed as cucumber gray mold disease control at 7.8 ppm foliar application 24 hr before inoculation by preventive manner
Thanatephorus cucumeris [55] = assay: Fungicidal activity against Thanatephorus cucumeris assessed as rice sheath blight disease control at 31.3 ppm foliar application for 24 hr before inoculation by preventive manner
Podosphaera fuliginea [56] = assay: Fungicidal activity against Podosphaera fuliginea assessed as cucumber powdery mildew control at 0.125 ppm foliar application 24 hr before inoculation by preventive manner
Thanatephorus cucumeris [57] = assay: Fungicidal activity against Thanatephorus cucumeris assessed as rice sheath blight disease control at 2 ppm foliar application for 24 hr before inoculation by preventive manner
Podosphaera fuliginea [58] = assay: Fungicidal activity against Podosphaera fuliginea assessed as cucumber powdery mildew control at 2 ppm foliar application 24 hr after inoculation by curative manner
Thanatephorus cucumeris [59] = assay: Fungicidal activity against Thanatephorus cucumeris assessed as rice sheath blight disease control at 125 ppm foliar application for 24 hr before inoculation by preventive manner
Blumeria graminis [60] = assay: Fungicidal activity against Blumeria graminis f. sp. tritici assessed as wheat powdery mildew disease control at 125 ppm foliar application for 24 hr after inoculation by curative manner
Podosphaera fuliginea [61] = assay: Fungicidal activity against Podosphaera fuliginea assessed as cucumber powdery mildew control at 7.8 ppm foliar application 24 hr after inoculation by curative manner
Botrytis cinerea [62] = assay: Fungicidal activity against Botryotinia fuckeliana assessed as cucumber gray mold disease control at 2 ppm foliar application 24 hr before inoculation by preventive manner

COC(=O)C(C)N(C(=O)Cc1ccccc1)c1c(C)cccc1C (configuration not stated) [BENALAXYL]
Activity [1]: 97% | Activity [2]: 80% | Activity [3]: 80% | Activity [4]: 70% | Activity [5]: 20% | Activity [6]: 0% | Activity [7]: 40% | Activity [8]: 40% | Activity [9]: 20% | Activity [10]: 20% | Activity [11]: 97% | Activity [12]: 0% | Activity [13]: 0% | Activity [14]: 10% | Activity [15]: 70%

CC(C)(C)C(=O)C(Oc1ccc(Cl)cc1)n1cncn1 (configuration not stated) [TRIADIMEFON]
Activity (Blumeria graminis [16]): 50% | Activity (Blumeria graminis [17]): 50% | Activity (Blumeria graminis [18]): 97% | Activity (Blumeria graminis [19]): 97% | Activity (Blumeria graminis [20]): 90% | Activity (Blumeria graminis [21]): 30% | Activity (Blumeria graminis [22]): 90%

CNC(=O)C(OC)c1cccc(COc2cc(C)cc(C)c2)c1 (configuration not stated)
Activity (Botrytis cinerea [23]): 50% | Activity (Podosphaera fuliginea [24]): <90% | Activity (Pyricularia oryzae [25]): 90%

CNC(=O)C(OC)c1cccc(COc2ccccc2Br)c1 (configuration not stated)
Activity (Botrytis cinerea [26]): 50% | Activity (Podosphaera fuliginea [27]): 90% | Activity (Pyricularia oryzae [25]): 90%

CCNC(=O)C(OC)c1cccc(COc2cc(C)ccc2C)c1 (configuration not stated)
Activity (Botrytis cinerea [26]): 50% | Activity (Podosphaera fuliginea [28]): 90% | Activity (Pyricularia oryzae [29]): <90%

CNC(=O)C(OC)c1cccc(COc2cc(C)ccc2C)c1 (configuration not stated)
Activity [1]: 97% | Activity [2]: 30% | Activity [3]: 30% | Activity (Pyricularia oryzae [30]): 30% | Activity (Blumeria graminis [17]): 90% | Activity (Pyricularia oryzae [31]): 70% | Activity (Botrytis cinerea [32]): 50% | Activity (Podosphaera fuliginea [33]): 70% | Activity (Thanatephorus cucumeris [34]): 30% | Activity (Blumeria graminis [18]): 97% | Activity [4]: 70% | Activity (Pyricularia oryzae [35]): 90% | Activity (Thanatephorus cucumeris [36]): 70% | Activity (Botrytis cinerea [37]): 50% | Activity [5]: 50% | Activity (Botrytis cinerea [38]): 80% | Activity (Pyricularia oryzae [39]): 95% | Activity (Blumeria graminis [40]): 97% | Activity (Blumeria graminis [19]): 90% | Activity (Botrytis cinerea [41]): 60% | Activity [7]: 0% | Activity [8]: 70% | Activity (Blumeria graminis [20]): 90% | Activity (Botrytis cinerea [42]): 80% | Activity (Thanatephorus cucumeris [43]): 20% | Activity (Podosphaera fuliginea [44]): 90% | Activity [9]: 97% | Activity [10]: 97% | Activity (Thanatephorus cucumeris [45]): 40% | Activity (Podosphaera fuliginea [46]): 99% | Activity (Podosphaera fuliginea [47]): 70% | Activity (Blumeria graminis [48]): 97% | Activity (Podosphaera fuliginea [49]): 30% | Activity (Botrytis cinerea [50]): 20% | Activity [11]: 70% | Activity (Pyricularia oryzae [51]): 90% | Activity (Botrytis cinerea [52]): 80% | Activity (Thanatephorus cucumeris [53]): 20% | Activity (Botrytis cinerea [54]): 50% | Activity (Thanatephorus cucumeris [55]): 40% | Activity (Podosphaera fuliginea [56]): 30% | Activity (Podosphaera fuliginea [27]): 90% | Activity [14]: 0% | Activity (Blumeria graminis [22]): 90% | Activity (Thanatephorus cucumeris [57]): 10% | Activity (Podosphaera fuliginea [58]): 100% | Activity (Thanatephorus cucumeris [59]): 80% | Activity (Blumeria graminis [60]): 97% | Activity (Podosphaera fuliginea [61]): 100% | Activity (Botrytis cinerea [62]): 50% | Activity [15]: 97%
